Patent publication US12116343B2, “Inhibitors of APOL1 and methods of using same” (Vertex Pharmaceuticals Incorporated, priority 2020, dated 2024)

Target: T1, G1 APOL1 (Homo sapiens, UniProt O14791, I384M/S342G)
T1 construct: expressed in transfected cells
T1 sequence (O14791 28-398 S342G/I384M): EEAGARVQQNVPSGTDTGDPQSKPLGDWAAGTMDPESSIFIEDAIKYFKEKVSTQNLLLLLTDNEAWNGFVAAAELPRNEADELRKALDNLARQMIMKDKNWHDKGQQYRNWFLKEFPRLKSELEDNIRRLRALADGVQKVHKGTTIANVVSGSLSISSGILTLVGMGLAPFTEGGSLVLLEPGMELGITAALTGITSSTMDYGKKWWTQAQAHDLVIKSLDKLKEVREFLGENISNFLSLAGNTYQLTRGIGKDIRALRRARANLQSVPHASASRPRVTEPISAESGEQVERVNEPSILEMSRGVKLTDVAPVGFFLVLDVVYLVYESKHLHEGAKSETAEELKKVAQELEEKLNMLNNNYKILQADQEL
Assay: Acute APOL1 Thallium Assay with inducible stable clones of HEK 293 cells
Type: cell-based
Conditions: HEK 293 T-Rex cells expressing G1 APOL1; read-out: Thallium Assay (IC50)
Outline: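 Tetracycline-inducible HEK293 T-Rex clone G1 DC3.25 expressing G1 APOL1, plated at 26000 cells/well in Opti-MEM with tetracycline induction. APOL1 pore activity read on FLIPR as fluorescence increase from Tl+ influx into cells loaded with a Tl+-sensitive AM-ester dye.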

IC50: 250 to 1000 nM
Compound: C[C@H](O)CNC(=O)[C@H]1C[C@H](c2c(-c3ccc(F)cc3)[nH]c3c(F)cc(F)cc32)C1 [Compound 82]
